According to US10898548B2, “Modulators of protein tyrosine phosphatase and uses thereof” (LEUVAS THERAPEUTICS, priority 2015, dated 2021):
“Also recorded” adds a separate entry of the source. Marks after values point to notes of the source that are not given here.

Tests used:
PTPRG = experiment: in vitro phosphatase activity (pNPP) on membranes from human primary monocytes; format: biochemical; details: monocyte membranes, DMSO 7.25
Protocol: We first tested the biochemical activity of the fusion peptide by performing in vitro assays of phosphatase activity on purified membranes isolated from human primary monocytes compared to membranes isolated from human primary polymorphonuclear cells (PMNs). Human primary monocytes and polymorphonuclear (PMNs) cells were isolated from whole blood of healthy donors. Purity of monocyte preparation was evaluated by flow cytometry after staining with fluorescein isothiocyanate (FITC)-conjugated anti-CD14 antibody and was more than 95%. Isolated cells were kept at 37° C. in standard adhesion buffer (PBS, 1 mM CaCl2, 1 mM MgCl2, 10% FBS, pH 7.2) and used within 1 h.
The phosphatase activity in membrane fractions isolated from human monocytes and PMNs was assessed. […] Cells were then sonicated twice (6 sec, 15% W) and centrifuged at 2000 rpm for 10 minutes. The supernatants were collected and centrifuged at 28000 rpm for 60 minutes. After centrifugation, the supernatants were discarded, and the membrane pellets were dissolved in 20 mM tris pH 7.4. Equal amount of membrane fractions were added to pNPP buffer containing 20 mM tris, 10 mM DTT and 2 mM pNPP. Following, DMSO and peptides were added. After 30 minutes of incubation, levels of de-phosphorylation, in presence or absence of orthovanadate, were measured at 405 nm by a plate reader. Values are absorbance at 405 nn shown as percent fold increase over the blank; mean values of three experiments are shown. *p<0.001 vs vehicle (DMSO).

human neutrophils = experiment: fMLP-triggered adhesion of neutrophils (PMNs) to ICAM-1; format: cell-based; details: for adhesion of human neutrophils to ICAM-1 (adherent cells), Resting (no stimulation): mean ± SD
Protocol: We investigated the functional effect of PTPRG activation on integrin activation and mediated adhesion by chemoattractants in human primary monocytes and PMNs in a static and flow adhesion assays. Briefly, human primary monocytes or polymorphonuclear cells were suspended at 5×10^6/ml in standard adhesion buffer. Adhesion assays were performed on 18-well glass slides coated with 1 mg/ml human fibrinogen or with 1 μg/ml human ICAM-1 in PBS; 20 μl of cell suspension were added to the coated wells and stimulated for 1 min at 37° C. with 5 μl of fMLP, 0.05 μM final concentration. After rapid washing, adherent cells were fixed in ice-cold 1.5% glutaraldehyde in PBS, and still images of adherent cells in 0.2 mm^2 fields were acquired al 20× phase contrast magnification, NA 0.40, with a charge-coupled device camera (ICD-42B; Ikegami) connected to an inverted microscope (IX50; Olympus). Image acquisition and computer-assisted enumeration of adherent cells were performed with ImageJ (National Institute of Health).
Chemokine-triggered adhesion of human neutrophils was measured similarly. Freshly isolated, non-activated human neutrophils incubated with buffer or increasing concentrations of TAT-ICD and then spotted onto ICAM-1-coated slides. Integrin-mediated adhesion was triggered using 50 nM fMLP and the adherent cells were fixed and enumerated as described for the lymphocytes above.

U251 GBM cells = experiment: cell number by flow cytometry, U251 GBM cells; format: cell-based; details: input 5000
Protocol: Cell viability and survival was measured using the MTT assay, a colorimetric assay for assessing cell metabolic activity set up under conditions where the absorption reflects the number of viable cells present (Table 21 and 22) and expressed as relative absorption at 570 nm. Early apoptosis was measured using VYBRANT DyeCycle Violet stain (Molecular Probes), a DNA-selective, cell membrane-permeant dye that can distinguish the compacted state of the nuclear chromatin in apoptotic cells as determined by flow cytometry and presented as the percent of cells that are apoptotic (Table 23 and 24). The actual number of cells following treatment with TAT-ICD or TAT alone (Table 25) was determined using flow cytometry compared to an input of 5,000 cells at time zero. To confirm apoptosis the TUNEL labeling assay, which detects DNA strand breaks in apoptotic cells by fluorescence microscopy, was also used to examine U251 cells treated with the PTPRG WD. Briefly, the assay used an optimized terminal transferase ([…]) to label 3′OH ends in genomic DNA with TMR-dUTP, thus allowing the measurement and quantification of cell death by apoptosis. U251 cells were pretreated for 1, 3 and 6 hours with 50 μM P1-WD. Then cells were fixed and permeabilized, incubated with TUNEL reaction mixture for 1 h at RT, and then stained with DAPI (for nuclei detection) and with Alexa670-Phalloidin (to detect actin in cell membranes). After the staining steps, cells were visualized with a confocal microscope.

U87 GBM cells = experiment: VYBRANT apoptosis, U87 GBM cells; format: cell-based; details: 0.5 μM
[1] = in vitro phosphatase assay of TAT-ICD (pNPP); format: biochemical; details: 50 μM TAT control peptide or 50 μM TAT-ICD; 30 minutes
Protocol: Cells were then sonicated twice (6 sec, 15% \N) and centrifuged at 2000 rpm for 10 minutes. The supernatants were collected and centrifuged at 28000 rpm for 60 minutes and then the membrane pellets were dissolved in 20 mM tris pH 7.4. Equal amount of membrane fractions were added to pNPP buffer containing 20 mM tris, 10 mM DTT and 2 mM pNPP. Following, DMSO and 50 μM TAT control peptide or 50 μM TAT-ICD, in presence or absence of 200 μM Na3VO4 were added. After 30 minutes of incubation, levels of de-phosphorylation, in presence or absence of orthovanadate, were measured at 405 nm by a plate reader (Table 5). Shown is % fold increase over the pNPP buffer alone; mean values of 7 experiments in triplicate.

For “P1: Penetratin delivery peptide, 16 aa RQIKIWFQNRRMKWKK (SEQ ID 4), control [reference compound]”, the “phosphatase activity, absorbance at 405 nm as percent fold increase over the blank” value (PTPRG; control peptide, concentration not given) was 16.00%.
For “P1-WD: fusion Trojan peptide SEQ ID 3: Penetratin, glycine, PTPRG wedge domain aa 831-856; RQIKIWFQNRRMKWKKGKQFVKHIGELYSNNQHGFSEDFEEVQ (listed as Homo sapiens)”, the “phosphatase activity, absorbance at 405 nm as percent fold increase over the blank” value (PTPRG; P1-WD 50 micromolar) was 34.62* %, the “phosphatase activity, absorbance at 405 nm as percent fold increase over the blank” value (PTPRG; P1-WD 100 micromolar) was 86.70* % and the “phosphatase activity, absorbance at 405 nm as percent fold increase over the blank” value (PTPRG; P1-WD 200 micromolar) was 109.00* %. The “chemoattractant-induced adhesion / integrin activation of PMNs” value (human neutrophils; human PMNs) was “completely unaffected; also recorded: not able to block”.
For “TAT (GRKKRRQRRRPPQ; listed as Homo sapiens) [reference compound]”, the number of cells (U251 GBM cells; TAT 50 μM, 6 hours, Control 5000) was 4700 cells per standard volume of medium, the number of cells (U251 GBM cells; TAT 50 μM, 9 hours, Control 10000) was 7000 cells per standard volume of medium and the number of cells (U251 GBM cells; TAT 50 μM, 24 hours, Control 10000) was 11385 cells per standard volume of medium. The “percent of apoptotic cells” value (U87 GBM cells; 1 hour, Control 10) was 20%, the “percent of apoptotic cells” value (U87 GBM cells; 3 hours, Control 3) was 10% and the “percent of apoptotic cells” value (U87 GBM cells; 6 hours, Control 14) was 20%. The “phosphatase activity, % fold increase over the pNPP buffer alone” value [1] was 191.7%.
For “TAT-ICD: fusion recombinant protein SEQ ID 5: PTPRG intracellular domain aa 797-1445 fused to 13 aa TAT sequence”, the number of cells (U251 GBM cells; TAT-ICD 0.5 μM, 6 hours, Control 5000) was 4676 cells per standard volume of medium, the number of cells (U251 GBM cells; TAT-ICD 0.5 μM, 9 hours, Control 10000) was 5400 cells per standard volume of medium and the number of cells (U251 GBM cells; TAT-ICD 0.5 μM, 24 hours, Control 10000) was 6094 cells per standard volume of medium. The number of cells (U251 GBM cells; TAT-ICD 1 μM, 6 hours, Control 5000) was 2688 cells per standard volume of medium, the number of cells (U251 GBM cells; TAT-ICD 1 μM, 9 hours, Control 10000) was 5434 cells per standard volume of medium and the number of cells (U251 GBM cells; TAT-ICD 1 μM, 24 hours, Control 10000) was 5300 cells per standard volume of medium. The number of cells (U251 GBM cells; TAT-ICD 2 μM, 6 hours, Control 5000) was 3943 cells per standard volume of medium, the number of cells (U251 GBM cells; TAT-ICD 2 μM, 9 hours, Control 10000) was 3016 cells per standard volume of medium and the number of cells (U251 GBM cells; TAT-ICD 2 μM, 24 hours, Control 10000) was 4500 cells per standard volume of medium. For the same substance, the “percent of apoptotic cells” value (U87 GBM cells; 1 hour, Control 10) was 67%, the “percent of apoptotic cells” value (U87 GBM cells; 3 hours, Control 3) was 60% and the “percent of apoptotic cells” value (U87 GBM cells; 6 hours, Control 14) was 70%. For the same substance, the “phosphatase activity, % fold increase over the pNPP buffer alone” value [1] was 4661.0%, the “adhesion of human neutrophils to ICAM-1 (adherent cells), Resting (no stimulation)” value (human neutrophils; TAT-ICD 0.5 micromolar) was 12 ± 5 and the “adhesion of human neutrophils to ICAM-1 (adherent cells), Resting (no stimulation)” value (human neutrophils; TAT-ICD 1.0 micromolar) was 12 ± 5.
